Laboratory results published in the supplement of paper PMC10307832.

Assays:
Assay in all cases: relative viability (nuclei count vs DMSO), 5 days (fraction); higher = more cells survive
[1] = compound: C(C(=O)C(=O)O)Br [Bromopyruvate] + Nc1ncn([C@H]2C[C@H](O)[C@@H](CO)O2)c(=O)n1 [Decitabine] (partner 2 µM)
Procedure, shortened: (§1)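 For relative viability, nuclei counts in treated wells were divided by those in vehicle wells. Lung cancer cell lines had been pin-tool dosed in 1536-well plates the day after seeding and cultured for 5 days, then fixed and stained in one step (final 0.05% Triton X-100, 1% formaldehyde, 1 ug/ml Hoechst) and imaged at 4×. Doses were one drug alone or a fixed anchor-drug dose plus five library-drug doses (not always all listed) in √10 steps, and values are duplicate-plate medians.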

[2] = compound: C(C(=O)C(=O)O)Br [Bromopyruvate] + CS(=O)(=O)N1CCN(Cc2cc3nc(-c4cccc5[nH]ncc45)nc(N4CCOCC4)c3s2)CC1 [Pictilisib] (partner 1 µM)
Procedure, shortened: as §1

Bicalutamide + AZD7762 = compound: CC(O)(CS(=O)(=O)c1ccc(F)cc1)C(=O)Nc1ccc(C#N)c(C(F)(F)F)c1 [Bicalutamide] + NC(=O)Nc1cc(-c2cccc(F)c2)sc1C(=O)N[C@H]1CCCNC1 [AZD7762] (partner 0.2 µM)
Procedure, shortened: as §1

[3] = compound: CC(O)(CS(=O)(=O)c1ccc(F)cc1)C(=O)Nc1ccc(C#N)c(C(F)(F)F)c1 [Bicalutamide] + CC(=O)Nc1cccc(-n2c(=O)n(C3CC3)c(=O)c3c(Nc4ccc(I)cc4F)n(C)c(=O)c(C)c32)c1 [Trametinib] (partner 0.02 µM)
Procedure, shortened: as §1

Cell Line | relative viability ([1]; first compound 1 µM) | relative viability ([1]; first compound 3.162 µM) | relative viability ([1]; first compound 10 µM) | relative viability ([1]; first compound 31.62 µM) | relative viability ([1]; first compound 100 µM) | relative viability ([2]; first compound 1 µM) | relative viability ([2]; first compound 3.162 µM) | relative viability ([2]; first compound 10 µM) | relative viability ([2]; first compound 31.62 µM) | relative viability ([2]; first compound 100 µM) | relative viability (Bicalutamide + AZD7762; first compound 0.08 µM) | relative viability (Bicalutamide + AZD7762; first compound 0.253 µM) | relative viability (Bicalutamide + AZD7762; first compound 0.8 µM) | relative viability (Bicalutamide + AZD7762; first compound 2.53 µM) | relative viability ([3]; first compound 0.08 µM) | relative viability ([3]; first compound 0.253 µM) | relative viability ([3]; first compound 0.8 µM) | relative viability ([3]; first compound 2.53 µM)
NCI-H3122 | 0.454 | 0.426 | 0.365 | 0.425 | 0.377 | 0.553 | 0.664 | 0.879 | 0.554 | 0.567 | 0.98 | 1 | 1.05 | 1.01 | 0.202 | 0.241 | 0.225 | 0.258
PC-3 [JPC-3] | 0.866 |  | 0.91 |  | 0.738 | 0.775 | 0.724 | 0.731 | 0.694 | 0.733 | 0.86 | 0.815 | 0.912 | 0.874 | 0.756 | 0.737 | 0.697 | 0.719
PC-14 | 0.226 | 0.229 | 0.204 | 0.262 | 0.201 | 0.714 | 0.692 | 0.898 | 0.808 | 0.611 | 0.314 | 0.329 | 0.443 | 0.353 | 0.879 | 0.738 | 0.926 | 0.72
RERF-LC-KJ | 0.738 | 0.745 | 0.791 | 0.794 | 0.72 | 0.537 | 0.563 | 0.644 | 0.617 | 0.495 | 0.982 | 0.847 | 1.47 | 0.867 | 0.968 | 0.909 | 1.07 | 0.81
